Measurements as given in PubChem BioAssay (NCI).
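Grown in 96-well plates, cells were treated for 48 hours with each compound at five concentrations. Insufficient inhibition: endpoint recorded as highest concentration tested. GI50 marks 50% less growth. TGI: concentration producing complete growth inhibition.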

How the values were obtained:
Assay in all cases: inhibition of tumour cell growth, NCI panel, 48 h
UACC-62 melanoma = tested on: UACC-62 melanoma
M14 melanoma = tested on: M14 melanoma
SW-620 colon = tested on: SW-620 colon
HOP-18 NSCLC = tested on: HOP-18 NSCLC
UO-31 renal = tested on: UO-31 renal
A549 NSCLC = tested on: A549 NSCLC
HT29 colon = tested on: HT29 colon
LOX IMVI melanoma = tested on: LOX IMVI melanoma
SF-295 CNS = tested on: SF-295 CNS
COLO 205 colon = tested on: COLO 205 colon
SNB-78 CNS = tested on: SNB-78 CNS
SK-OV-3 ovarian = tested on: SK-OV-3 ovarian
SNB-19 CNS = tested on: SNB-19 CNS
NCI-H460 lung = tested on: NCI-H460 lung
A498 renal = tested on: A498 renal
LXFL 529 NSCLC = tested on: LXFL 529 NSCLC
CAKI-1 renal = tested on: CAKI-1 renal
OVCAR-5 ovarian = tested on: OVCAR-5 ovarian
SNB-75 CNS = tested on: SNB-75 CNS
U251 CNS = tested on: U251 CNS
MOLT-4 leukemia = tested on: MOLT-4 leukemia
SK-MEL-5 melanoma = tested on: SK-MEL-5 melanoma
M19-MEL melanoma = tested on: M19-MEL melanoma
RXF 393 renal = tested on: RXF 393 renal
NCI-H23 lung = tested on: NCI-H23 lung
SN12C renal = tested on: SN12C renal
K-562 leukemia = tested on: K-562 leukemia
DLD-1 colon = tested on: DLD-1 colon
CCRF-CEM leukemia = tested on: CCRF-CEM leukemia
EKVX NSCLC = tested on: EKVX NSCLC
HCC-2998 colon = tested on: HCC-2998 colon
OVCAR-3 ovarian = tested on: OVCAR-3 ovarian
MALME-3M melanoma = tested on: MALME-3M melanoma
KM20L2 colon = tested on: KM20L2 colon
DMS 114 small cell lung = tested on: DMS 114 small cell lung
SK-MEL-2 melanoma = tested on: SK-MEL-2 melanoma
SR leukemia = tested on: SR leukemia
OVCAR-4 ovarian = tested on: OVCAR-4 ovarian
RPMI-8226 leukemia = tested on: RPMI-8226 leukemia
HCT-15 colon = tested on: HCT-15 colon
TK-10 renal = tested on: TK-10 renal
IGROV1 ovarian = tested on: IGROV1 ovarian
SF-268 CNS = tested on: SF-268 CNS
HOP-62 NSCLC = tested on: HOP-62 NSCLC
HL-60(TB) leukemia = tested on: HL-60(TB) leukemia
SF-539 CNS = tested on: SF-539 CNS
OVCAR-8 ovarian = tested on: OVCAR-8 ovarian
UACC-257 melanoma = tested on: UACC-257 melanoma
NCI-H226 lung = tested on: NCI-H226 lung
HOP-92 NSCLC = tested on: HOP-92 NSCLC
ACHN renal = tested on: ACHN renal
DMS 273 small cell lung = tested on: DMS 273 small cell lung
SK-MEL-28 melanoma = tested on: SK-MEL-28 melanoma
KM12 colon = tested on: KM12 colon
HCT-116 colon = tested on: HCT-116 colon
786-0 renal = tested on: 786-0 renal

For C[CH2][Sn]1([CH2]C)[O]C(=O)[O][Sn]([CH2]C)([CH2]C)[O]1, the GI50 (UACC-62 melanoma) was 16.8 µM, the TGI (UACC-62 melanoma) was 32.5 µM and the GI50 (M14 melanoma) was 18.8 µM. It also gave a TGI (M14 melanoma) of 33.1 µM, a GI50 (SW-620 colon) of 15.2 µM and a TGI (SW-620 colon) of 29.2 µM. For the same molecule, the GI50 (HOP-18 NSCLC) was 17.2 µM, the TGI (HOP-18 NSCLC) was 31.2 µM and the GI50 (UO-31 renal) was 45.8 µM. For the same molecule, the TGI (UO-31 renal) was greater than 100 µM, the GI50 (A549 NSCLC) was greater than 65.4 µM and the TGI (A549 NSCLC) was greater than 100 µM. It also gave a GI50 (HT29 colon) of 25.6 µM, a TGI (HT29 colon) greater than 62.2 µM and a GI50 (LOX IMVI melanoma) of 17.2 µM. For the same molecule, the TGI (LOX IMVI melanoma) was 33 µM, the GI50 (SF-295 CNS) was 19.4 µM and the TGI (SF-295 CNS) was 34.7 µM. The GI50 (COLO 205 colon) was greater than 41.1 µM, the TGI (COLO 205 colon) was greater than 57.1 µM and the GI50 (SNB-78 CNS) was 17.1 µM. For the same molecule, the TGI (SNB-78 CNS) was 37.4 µM, the GI50 (SK-OV-3 ovarian) was greater than 100 µM and the TGI (SK-OV-3 ovarian) was greater than 100 µM. The GI50 (SNB-19 CNS) was 18.4 µM, the TGI (SNB-19 CNS) was 33.6 µM and the GI50 (NCI-H460 lung) was greater than 60.3 µM. The TGI (NCI-H460 lung) was greater than 100 µM, the GI50 (A498 renal) was 17.7 µM and the TGI (A498 renal) was 32.1 µM. The GI50 (LXFL 529 NSCLC) was 8.78 µM, the TGI (LXFL 529 NSCLC) was 21.7 µM and the GI50 (CAKI-1 renal) was 1.44 µM. The TGI (CAKI-1 renal) was 9.72 µM, the GI50 (OVCAR-5 ovarian) was greater than 45.8 µM and the TGI (OVCAR-5 ovarian) was greater than 59.5 µM. It also gave a GI50 (SNB-75 CNS) greater than 63.8 µM, a TGI (SNB-75 CNS) greater than 86.7 µM and a GI50 (U251 CNS) of 14.8 µM. It also gave a TGI (U251 CNS) of 29.8 µM, a GI50 (MOLT-4 leukemia) of 41.7 µM and a TGI (MOLT-4 leukemia) greater than 100 µM. It also gave a GI50 (SK-MEL-5 melanoma) of 21.1 µM, a TGI (SK-MEL-5 melanoma) of 40.8 µM and a GI50 (M19-MEL melanoma) of 18.5 µM. The TGI (M19-MEL melanoma) was 37.9 µM, the GI50 (RXF 393 renal) was 15.5 µM and the TGI (RXF 393 renal) was 30.3 µM. It also gave a GI50 (NCI-H23 lung) of 17.9 µM, a TGI (NCI-H23 lung) of 35 µM and a GI50 (SN12C renal) greater than 63.4 µM. The TGI (SN12C renal) was greater than 100 µM, the GI50 (K-562 leukemia) was 13.7 µM and the TGI (K-562 leukemia) was 78.1 µM. The GI50 (DLD-1 colon) was 25.6 µM, the TGI (DLD-1 colon) was greater than 57.8 µM and the GI50 (CCRF-CEM leukemia) was 5.39 µM. For the same molecule, the TGI (CCRF-CEM leukemia) was 31.8 µM, the GI50 (EKVX NSCLC) was greater than 41.8 µM and the TGI (EKVX NSCLC) was greater than 57 µM. The GI50 (HCC-2998 colon) was 60 µM, the TGI (HCC-2998 colon) was greater than 100 µM and the GI50 (OVCAR-3 ovarian) was 23.5 µM. The TGI (OVCAR-3 ovarian) was greater than 61.8 µM, the GI50 (MALME-3M melanoma) was 16 µM and the TGI (MALME-3M melanoma) was 29.9 µM. It also gave a GI50 (KM20L2 colon) of 31.6 µM, a TGI (KM20L2 colon) greater than 87.7 µM and a GI50 (DMS 114 small cell lung) of 12.6 µM. The TGI (DMS 114 small cell lung) was 26.7 µM, the GI50 (SK-MEL-2 melanoma) was 15.8 µM and the TGI (SK-MEL-2 melanoma) was 29.6 µM. It also gave a GI50 (SR leukemia) of 30.8 µM, a TGI (SR leukemia) greater than 100 µM and a GI50 (OVCAR-4 ovarian) greater than 100 µM. The TGI (OVCAR-4 ovarian) was greater than 100 µM, the GI50 (RPMI-8226 leukemia) was 17.2 µM and the TGI (RPMI-8226 leukemia) was 47.6 µM. The GI50 (HCT-15 colon) was 25.3 µM, the TGI (HCT-15 colon) was greater than 54.4 µM and the GI50 (TK-10 renal) was 18.7 µM. For the same molecule, the TGI (TK-10 renal) was 32.8 µM, the GI50 (IGROV1 ovarian) was greater than 57.6 µM and the TGI (IGROV1 ovarian) was greater than 87.8 µM. For the same molecule, the GI50 (SF-268 CNS) was 18.9 µM, the TGI (SF-268 CNS) was 36.6 µM and the GI50 (HOP-62 NSCLC) was 41.8 µM. The TGI (HOP-62 NSCLC) was greater than 68.2 µM, the GI50 (HL-60(TB) leukemia) was 26.4 µM and the TGI (HL-60(TB) leukemia) was 81.7 µM. It also gave a GI50 (SF-539 CNS) of 19.7 µM, a TGI (SF-539 CNS) of 38.5 µM and a GI50 (OVCAR-8 ovarian) of 14.2 µM. For the same molecule, the TGI (OVCAR-8 ovarian) was 20.4 µM, the GI50 (UACC-257 melanoma) was 17.8 µM and the TGI (UACC-257 melanoma) was 33 µM. The GI50 (NCI-H226 lung) was greater than 43.8 µM, the TGI (NCI-H226 lung) was greater than 58.4 µM and the GI50 (HOP-92 NSCLC) was 17.7 µM. It also gave a TGI (HOP-92 NSCLC) of 33.1 µM, a GI50 (ACHN renal) greater than 50.4 µM and a TGI (ACHN renal) greater than 64.6 µM. It also gave a GI50 (DMS 273 small cell lung) of 59.4 µM, a TGI (DMS 273 small cell lung) greater than 100 µM and a GI50 (SK-MEL-28 melanoma) of 13 µM. It also gave a TGI (SK-MEL-28 melanoma) of 25.8 µM, a GI50 (KM12 colon) greater than 61.5 µM and a TGI (KM12 colon) greater than 100 µM. It also gave a GI50 (HCT-116 colon) greater than 42.9 µM, a TGI (HCT-116 colon) greater than 57.7 µM and a GI50 (786-0 renal) of 17.6 µM. The TGI (786-0 renal) was 32 µM.
